Experimental data: the supplement of paper PMC11208160
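Note: IS621 bridge recombinase in Escherichia coli cells against a fixed T5 target plasmid.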

Assay: recombinant UMI read abundance after kanamycin selection (control-corrected) (log10(CPM+1)); higher = more efficient recombination; extreme values may be limits of the assay; sequences stand for … in AGTGCAGAGAAAATCGGCCAGTTTTCTCTGCCTGCAGTCCGCATGCCGTGGGACCCCTTGGGTTCTAACCTGTTGCCTAGATTTATGCAGCGGACTGCCTTTCTCCCAAAGTGATAAACCGG…AGGTTGGTTTCACT; site = the 11-nt donor
How it was run: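 Reported values are log10(CPM+1) from a pooled Escherichia coli screen of donor and donor-binding-loop pairs for the IS621 bridge recombinase. Selection used IPTG (0.07 mM) plus kanamycin, against unselected plating, each in two replicates. Recombinant UMIs were amplified across the donor–target junction, sequenced, converted to CPM, averaged over replicates and scaled by control-derived factors.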
For “GCATGCCCATGGACCGGTTTTCCCGGTAATCCGTATTTGAT (site GCTTGCCCTAT)”, the “recombinant UMI read abundance (log10)” value was 0.0139. For “GCATGGCCATGGACCGGTTTTCCCGGTAATCCGTATTTGCA (site GAATGGCCTTG)”, the “recombinant UMI read abundance (log10)” value was 0. For “GCATGGCCATGGACCGGTTTTCCCGGTAATCCGTATTTGCA (site GCATGGCCTTG)”, the “recombinant UMI read abundance (log10)” value was 0. With “GCATGGCCATGGACCGGTTTTCCCGGTAATCCGTATTTGCA (site GGATGGCCTTG)” the “recombinant UMI read abundance (log10)” value was 0.0185. With “GCATGGCCATGGACCGGTTTTCCCGGTAATCCGTATTTGCA (site GTATGGCCTTG)” the “recombinant UMI read abundance (log10)” value was 0.0194. For “GCATTACCATGGACCGGTTTTCCCGGTAATCCGTATTTGTC (site GCATTACCTGA)”, the “recombinant UMI read abundance (log10)” value was 0. For “GCCAACGCATGGACCGGTTTTCCCGGTAATCCGTATTTGAA (site GCCAACGCTTT)”, the “recombinant UMI read abundance (log10)” value was 1.63. With “GCCAAGGCATGGACCGGTTTTCCCGGTAATCCGTATTTGAG (site GCCAAGGCTCT)” the “recombinant UMI read abundance (log10)” value was 1.49. In the case of “GCCACGCCATGGACCGGTTTTCCCGGTAATCCGTATTTGAA (site GCCACGCCTTA)”, the “recombinant UMI read abundance (log10)” value is reported as 0.00688. With “GCCACGCCATGGACCGGTTTTCCCGGTAATCCGTATTTGAA (site GCCACGCCTTC)” the “recombinant UMI read abundance (log10)” value was 0.0229. In the case of “GCCACGCCATGGACCGGTTTTCCCGGTAATCCGTATTTGAA (site GCCACGCCTTG)”, the “recombinant UMI read abundance (log10)” value is reported as 0. In the case of “GCCACGCCATGGACCGGTTTTCCCGGTAATCCGTATTTGAA (site GCCACGCCTTT)”, the “recombinant UMI read abundance (log10)” value is reported as 0.0176. In the case of “GCCACGCCATGGACCGGTTTTCCCGGTAATCCGTATTTGCA (site GCCACGCCTTA)”, the “recombinant UMI read abundance (log10)” value is reported as 0. For “GCCACGCCATGGACCGGTTTTCCCGGTAATCCGTATTTGCA (site GCCACGCCTTC)”, the “recombinant UMI read abundance (log10)” value was 0.0237. In the case of “GCCACGCCATGGACCGGTTTTCCCGGTAATCCGTATTTGCA (site GCCACGCCTTG)”, the “recombinant UMI read abundance (log10)” value is reported as 1.36. With “GCCACGCCATGGACCGGTTTTCCCGGTAATCCGTATTTGCA (site GCCACGCCTTT)” the “recombinant UMI read abundance (log10)” value was 0.0202. For “GCCACGCCATGGACCGGTTTTCCCGGTAATCCGTATTTGGA (site GCCACGCCTTA)”, the “recombinant UMI read abundance (log10)” value was 0.00593. For “GCCACGCCATGGACCGGTTTTCCCGGTAATCCGTATTTGGA (site GCCACGCCTTC)”, the “recombinant UMI read abundance (log10)” value was 0.0144. In the case of “GCCACGCCATGGACCGGTTTTCCCGGTAATCCGTATTTGGA (site GCCACGCCTTG)”, the “recombinant UMI read abundance (log10)” value is reported as 0. In the case of “GCCACGCCATGGACCGGTTTTCCCGGTAATCCGTATTTGGA (site GCCACGCCTTT)”, the “recombinant UMI read abundance (log10)” value is reported as 0.00923. In the case of “GCCACGCCATGGACCGGTTTTCCCGGTAATCCGTATTTGTC (site GCCACGCCTAA)”, the “recombinant UMI read abundance (log10)” value is reported as 0. In the case of “GCCACGCCATGGACCGGTTTTCCCGGTAATCCGTATTTGTC (site GCCACGCCTCA)”, the “recombinant UMI read abundance (log10)” value is reported as 0.015. For “GCCACGCCATGGACCGGTTTTCCCGGTAATCCGTATTTGTC (site GCCACGCCTGA)”, the “recombinant UMI read abundance (log10)” value was 1.03. In the case of “GCCACGCCATGGACCGGTTTTCCCGGTAATCCGTATTTGTC (site GCCACGCCTTA)”, the “recombinant UMI read abundance (log10)” value is reported as 0.0128. For “GCCACGCCATGGACCGGTTTTCCCGGTAATCCGTATTTGTG (site GCCACGCCTAA)”, the “recombinant UMI read abundance (log10)” value was 0.0114. In the case of “GCCACGCCATGGACCGGTTTTCCCGGTAATCCGTATTTGTG (site GCCACGCCTCA)”, the “recombinant UMI read abundance (log10)” value is reported as 0.0225. For “GCCACGCCATGGACCGGTTTTCCCGGTAATCCGTATTTGTG (site GCCACGCCTGA)”, the “recombinant UMI read abundance (log10)” value was 0. In the case of “GCCACGCCATGGACCGGTTTTCCCGGTAATCCGTATTTGTG (site GCCACGCCTTA)”, the “recombinant UMI read abundance (log10)” value is reported as 0.0106. For “GCCACGTCATGGACCGGTTTTCCCGGTAATCCGTATTTGCA (site GCCACGTCTTG)”, the “recombinant UMI read abundance (log10)” value was 2.76. For “GCCCACACATGGACCGGTTTTCCCGGTAATCCGTATTTGTA (site ACCCACACTTA)”, the “recombinant UMI read abundance (log10)” value was 1.08. With “GCCCACACATGGACCGGTTTTCCCGGTAATCCGTATTTGTA (site CCCCACACTTA)” the “recombinant UMI read abundance (log10)” value was 1.37. With “GCCCACACATGGACCGGTTTTCCCGGTAATCCGTATTTGTA (site GCCCACACTTA)” the “recombinant UMI read abundance (log10)” value was 1.78. For “GCCCACACATGGACCGGTTTTCCCGGTAATCCGTATTTGTA (site TCCCACACTTA)”, the “recombinant UMI read abundance (log10)” value was 1.02. In the case of “GCCCACCCATGGACCGGTTTTCCCGGTAATCCGTATTTGTT (site GACCACCCTAA)”, the “recombinant UMI read abundance (log10)” value is reported as 0.0217. For “GCCCACCCATGGACCGGTTTTCCCGGTAATCCGTATTTGTT (site GCCCACCCTAA)”, the “recombinant UMI read abundance (log10)” value was 0.051. With “GCCCACCCATGGACCGGTTTTCCCGGTAATCCGTATTTGTT (site GGCCACCCTAA)” the “recombinant UMI read abundance (log10)” value was 0.0315. For “GCCCACCCATGGACCGGTTTTCCCGGTAATCCGTATTTGTT (site GTCCACCCTAA)”, the “recombinant UMI read abundance (log10)” value was 0.0135. For “GCCCACGCATGGACCGGTTTTCCCGGTAATCCGTATTTGGA (site GCCCACGCTTC)”, the “recombinant UMI read abundance (log10)” value was 0.94. In the case of “GCCCGAGCATGGACCGGTTTTCCCGGTAATCCGTATTTGGA (site GCCCGAGCTTC)”, the “recombinant UMI read abundance (log10)” value is reported as 0.73. For “GCCCGCACATGGACCGGTTTTCCCGGTAATCCGTATTTGTG (site GCCCGCACTCA)”, the “recombinant UMI read abundance (log10)” value was 0.0672. With “GCCCGCTCATGGACCGGTTTTCCCGGTAATCCGTATTTGAG (site GCCCGCTCTCT)” the “recombinant UMI read abundance (log10)” value was 0.704. With “GCCCGTTCATGGACCGGTTTTCCCGGTAATCCGTATTTGAG (site GCCCGTTCTCT)” the “recombinant UMI read abundance (log10)” value was 2.23. For “GCCCTCCCATGGACCGGTTTTCCCGGTAATCCGTATTTGTG (site GCCCTCCCTCA)”, the “recombinant UMI read abundance (log10)” value was 0.0428. With “GCCCTTTCATGGACCGGTTTTCCCGGTAATCCGTATTTGCT (site GCCCTTTCTAG)” the “recombinant UMI read abundance (log10)” value was 1.67. With “GCCGAACCATGGACCGGTTTTCCCGGTAATCCGTATTTGGG (site GCCGAACCTCC)” the “recombinant UMI read abundance (log10)” value was 0.0289. For “GCCGATGCATGGACCGGTTTTCCCGGTAATCCGTATTTGGC (site GCCGATGCTGC)”, the “recombinant UMI read abundance (log10)” value was 0.846. With “GCCGCGCCATGGACCGGTTTTCCCGGTAATCCGTATTTGTA (site GCCACGCCTTA)” the “recombinant UMI read abundance (log10)” value was 0.00924. For “GCCGCGCCATGGACCGGTTTTCCCGGTAATCCGTATTTGTA (site GCCCCGCCTTA)”, the “recombinant UMI read abundance (log10)” value was 0.00531. With “GCCGCGCCATGGACCGGTTTTCCCGGTAATCCGTATTTGTA (site GCCGCGCCTTA)” the “recombinant UMI read abundance (log10)” value was 0.234. For “GCCGCGCCATGGACCGGTTTTCCCGGTAATCCGTATTTGTA (site GCCTCGCCTTA)”, the “recombinant UMI read abundance (log10)” value was 0.18. In the case of “GCCGCTCCATGGACCGGTTTTCCCGGTAATCCGTATTTGGT (site GCCGCTCCTAC)”, the “recombinant UMI read abundance (log10)” value is reported as 0.0147. With “GCCGGTCCATGGACCGGTTTTCCCGGTAATCCGTATTTGCA (site ACCGGTCCTTG)” the “recombinant UMI read abundance (log10)” value was 0. With “GCCGGTCCATGGACCGGTTTTCCCGGTAATCCGTATTTGCA (site CCCGGTCCTTG)” the “recombinant UMI read abundance (log10)” value was 0. In the case of “GCCGGTCCATGGACCGGTTTTCCCGGTAATCCGTATTTGCA (site GCCGGTCCTTG)”, the “recombinant UMI read abundance (log10)” value is reported as 0. With “GCCGGTCCATGGACCGGTTTTCCCGGTAATCCGTATTTGCA (site TCCGGTCCTTG)” the “recombinant UMI read abundance (log10)” value was 0. With “GCCGTATCATGGACCGGTTTTCCCGGTAATCCGTATTTGCA (site ACAGTATCTTG)” the “recombinant UMI read abundance (log10)” value was 2.87. With “GCCGTATCATGGACCGGTTTTCCCGGTAATCCGTATTTGCA (site GCCGTATCTTG)” the “recombinant UMI read abundance (log10)” value was 2.22.
